According to US20200246352A1, “Vanadyl and vanadate for use in reducing stress-induced metabolic derangement” (CFM Pharma Holding B.V., priority 2017, published 2020):
Values joined by “and” are separate entries in the source; they are usually repeats but may differ in a detail not shown here. Equal entries are not always repeated. Where two headings read alike, the source gives them in different places.

Tested on: healthy male Wistar rats
Settings: for Effect of adrenaline infusion on blood glucose level: 0.1, 0.3 or 1 μg/kg/min infusion for 180 min; for Blood glucose levels, individual animals in duplicate: medium adrenaline dose (MA) 0.3 μg/kg/min
Procedure: In the first part of the study (Table 1, Table 3, series 1), thirteen (13) healthy male Wistar rats were anesthetized by intraperitoneal (ip.) injection of thiopental (Tiobarbital 0.5 g, Braun Medical SA) after 12 hours of fasting.

CNCC(O)c1ccc(O)c(O)c1 (stereo not shown) [adrenaline]
Effect of adrenaline infusion on blood glucose level: inflicts hyperglycemic state in an adrenaline dose dependent manner | Effect of adrenaline infusion on blood glucose level (listed as Adrenaline): dose-dependent continuous increase in blood glucose level | Blood glucose level, mean (high dose 1 μg/kg/min infusion, 0 min (before infusion)): 5.39 mM/l | Blood glucose level, mean (high dose 1 μg/kg/min infusion, 15 min): 5.46 mM/l | Blood glucose level, mean (high dose 1 μg/kg/min infusion, 30 min): 5.69 mM/l | Blood glucose level, mean (high dose 1 μg/kg/min infusion, 45 min): 6.62 mM/l | Blood glucose level, mean (high dose 1 μg/kg/min infusion, 60 min): 7.93 mM/l | Blood glucose level, mean (high dose 1 μg/kg/min infusion, 90 min): 10.95 mM/l | Blood glucose level, mean (high dose 1 μg/kg/min infusion, 120 min): 13.25 mM/l | Blood glucose level, mean (high dose 1 μg/kg/min infusion, 150 min): 13.65 mM/l | Blood glucose level, mean (high dose 1 μg/kg/min infusion, 180 min): 13.81 mM/l | Time of peak blood glucose level after start of infusion (highest dose 1 μg/kg/min): around 120 min | Blood glucose level, mean (low dose 0.1 μg/kg/min infusion, 0 min (before infusion)): 5.09 mM/l | Blood glucose level, mean (low dose 0.1 μg/kg/min infusion, 15 min): 5.31 mM/l | Blood glucose level, mean (low dose 0.1 μg/kg/min infusion, 30 min): 5.26 mM/l | Blood glucose level, mean (low dose 0.1 μg/kg/min infusion, 45 min): 5.18 mM/l | Blood glucose level, mean (low dose 0.1 μg/kg/min infusion, 60 min): 5.70 mM/l | Blood glucose level, mean (low dose 0.1 μg/kg/min infusion, 90 min): 6.16 mM/l | Blood glucose level, mean (low dose 0.1 μg/kg/min infusion, 120 min): 7.09 mM/l | Blood glucose level, mean (low dose 0.1 μg/kg/min infusion, 150 min): 7.89 mM/l | Blood glucose level, mean (low dose 0.1 μg/kg/min infusion, 180 min): 8.34 mM/l | Blood glucose levels, individual animals in duplicate (30 min): 6.0 mM/l (2×) and 5.9 mM/l | Blood glucose levels, individual animals in duplicate (45 min): 4.7 mM/l and 4.3 mM/l and 5.7 mM/l | Blood glucose levels, individual animals in duplicate (60 min): 6.4 mM/l (2×) and 6.7 mM/l | Blood glucose levels, individual animals in duplicate (90 min): 6.0 mM/l and 7.4 mM/l and 9.5 mM/l | Blood glucose levels, individual animals in duplicate (120 min): 8.7 mM/l and 8.9 mM/l and 11.7 mM/l | Blood glucose levels, individual animals in duplicate (150 min): 7.5 mM/l and 7.1 mM/l and 12.8 mM/l | Blood glucose levels, individual animals in duplicate (180 min): 5.3 mM/l (2×) and 13.2 mM/l | Blood glucose level, mean (medium dose 0.3 μg/kg/min infusion, 0 min (before infusion)): 5.53 mM/l | Blood glucose level, mean (medium dose 0.3 μg/kg/min infusion, 15 min): 6.45 mM/l | Blood glucose level, mean (medium dose 0.3 μg/kg/min infusion, 30 min): 6.36 mM/l | Blood glucose level, mean (medium dose 0.3 μg/kg/min infusion, 45 min): 6.34 mM/l | Blood glucose level, mean (medium dose 0.3 μg/kg/min infusion, 60 min): 7.85 mM/l | Blood glucose level, mean (medium dose 0.3 μg/kg/min infusion, 90 min): 10.15 mM/l | Blood glucose level, mean (medium dose 0.3 μg/kg/min infusion, 120 min): 11.36 mM/l | Blood glucose level, mean (medium dose 0.3 μg/kg/min infusion, 150 min): 10.96 mM/l | Blood glucose level, mean (medium dose 0.3 μg/kg/min infusion, 180 min): 10.19 mM/l
